{"source": "patent US20090137477A1", "about": "“Treatment of oropharyngeal candidiasis in cancer patients” (BIOALLIANCE PHARMA, priority 2007, published 2009)", "origin": "cited, not measured here", "test_system": "oropharyngeal candidiasis", "conditions": "orally 50 mg/day for 14 days", "data": [{"smiles": "OC(Cn1cncn1)(Cn1cncn1)c1ccc(F)cc1F", "note": "[fluconazole]", "values": [{"measurement": "clinical cure", "value": 21, "unit": "%"}, {"measurement": "clinical response", "value": 53, "unit": "%"}]}]}
